Tested on: rat PCA
Assay: Passive cutaneous anaphylaxis (PCA) in rats
Assay type: in vivo
Conditions: iv, PBS with NaHCO3, time 0 mins before antigen challenge
Experimental: Serum containing heat labile homocytotropic antibody was raised in rats to crystallised ovalbumin (Grade 3 Sigma) by the Method of I.Mota (Immunology 7, 681 (1964)) using Bordetella pertussis vaccine ([…] Burroughs Welcome) as adjuvant.
Passive cutaneous anaphylaxis (PCA) was carried out by a method based on that of Ovary and Bier, (Proc. Soc. Exp. Bio. Med., 81, 584 (1952)) as modified by Goose and Blair (Immunology, 16, 749 (1969)) Male Sprague Dawley rats 230-340 gm were given 0.1 ml of each of six two fold serial dilutions of pooled antiserum in 0.9% saline (Polyfusor Boots) injected intradermally into separate sites on their shaved backs. 72 hours later the rats were challenged by intravenous injection of 0.3 ml of a 1% solution of ovalbumin in isotonic saline buffered with 0.05M, pH 7.2 Sorenson'Buffer (Bactohaemagglutination buffer Difco Laboratories), mixed with 0,2 ml of a 5% solution of Pontamine Sky Blue (6 BX C.l. 24410 Raymond A Lamb) in isotonic saline. The rats were killed after 20 minutes and the diameter of the blue wheals at the antibody injection sites was measured on the outer surface of the skin. The starting dilution of the serum was adjusted so that there was no response, after challenge, at the injection site of the highest dilution and a maximum response at the lowest dilutions. Typically, six twofold serial dilutions of the serum from 1/4 to 1/128 were used.
Compounds were tested for their ability to reduce the diameter of the wheals at those intradermal sites which in control animals gave less than maximum response. Each dose of the compounds was administered to six rats at a measured time prior to intravenous challenge with ovalbumin. Control groups of six rats were given the same volume (0.2 ml: 100g-^1) of carrier fluid at the same time prior to the challenge.
The results were calculated as follows: % inhibition of PCA = 100 (1 - a/b) where a = the sum of the diameters of the wheals produced in the test animal at the sites of antibody dilutions as used in control groups and b = the mean sum of the diameters of the wheals produced in the control group of animals at those antibody sites where at least five out of six of the animals gave less than maximum response. A typical variation in the control group of animals was SEM± 6%.

Structure (SMILES) | inhibition in vivo at 0.5 mg/kg | inhibition in vivo at 1 mg/kg | inhibition in vivo at 10 mg/kg | further results
CSc1cccc2c1C(=O)c1nn[nH]c1C2=O [Example 1, 4,9-Dihydro-4,9-dioxo-5-methylthio-lH-naphtho [2,-3-d]-v-triazole] | 35% | 68% | – | inhibition in vivo at 0.25 mg/kg: 23%
CCSc1cccc2c1C(=O)c1nn[nH]c1C2=O [Example 2, 4,9-Dihydro-4,9-dioxo-5-ethylthio-1H-naphtho[2,3-d]-v-triazole] | 40% | – | – | inhibition in vivo at 0.125 mg/kg: 31%; inhibition in vivo at 0.25 mg/kg: 27%
Cc1cc2c(c(S(C)(=O)=O)c1C)C(=O)c1nn[nH]c1C2=O [Example 12, 6,7-Dimethyl-4,9-dihydro-4,9-dioxo-5-methylsulphonyl-1H-na^phtho [2,3-d]-v-triazole] | – | 92% | 92% | –
CCC[S+]([O-])c1cccc2c1C(=O)c1nn[nH]c1C2=O (stereo not shown) [Example 8, 4,9-Dihydro-4,9-dioxo-5-propylsulphinyl-1H-naphtho[2,3-d] -v-triazole] | 88% | – | – | inhibition in vivo at 0.1 mg/kg: 74%
CCCS(=O)(=O)c1cccc2c1C(=O)c1nn[nH]c1C2=O [Example 9, 4,9-Dihydro-4,9-dioxo-5-propylsulphonyl-1H-naphtho[2,3-d] -v-triazole] | – | 51% | 87% | –
CCCSc1cccc2c1C(=O)c1nn[nH]c1C2=O [Example 7, 4,9-Dihyciro-4,9-dioxo-5-propylthio-1H-naphtho[2,3-d]-y-triazole] | 68% | – | – | inhibition in vivo at 5 mg/kg: 88%
CS(=O)(=O)c1cccc2c1C(=O)c1nn[nH]c1C2=O [Example 4, 4,9-Dihydro-4,9-dioxo-5-methylsulphonyl-lH-naphtho-[2,3-d]-v-triazole] | – | 44% | 88% | –
Cc1cc2c(c([S+](C)[O-])c1C)C(=O)c1nn[nH]c1C2=O (stereo not shown) [Example 11, 6,7-Dimethyl-4,9-dihydro-4,9-dioxo-5-methylsulphinyl-1H-naphtho [2,3-d]-v-triazole] | 88% | – | – | inhibition in vivo at 0.1 mg/kg: 50%
CC[S+]([O-])c1cccc2c1C(=O)c1nn[nH]c1C2=O (stereo not shown) [Example 5, 4,9-dihydro-4,9-dioxo-5-ethysulphinyl-1H-naphtho[2,3-d]-v-triazole] | 39% | – | – | inhibition in vivo at 0.1 mg/kg: 65%
C[S+]([O-])c1cccc2c1C(=O)c1nn[nH]c1C2=O (stereo not shown) [Example 3, 4,9-Dihydro-4,9-dioxo-5-methylsulphinyl-lH-naphtho-[2,3-d]-v-triazole] | 84% | – | – | inhibition in vivo at 0.0625 mg/kg (0.0625 mg/kg): 35%; inhibition in vivo at 0.125 mg/kg: 56%; inhibition in vivo at 0.25 mg/kg: 79%
CSc1c(C)c(C)cc2c1C(=O)c1nn[nH]c1C2=O [Example 10, 6,7-Dimethyl-4,9-dihydro-4,9-dioxo-5-methylthio-1H-naphtho[2,3-d]-v-triazole] | 71% | – | – | inhibition in vivo at 5 mg/kg: 94%
CCS(=O)(=O)c1cccc2c1C(=O)c1nn[nH]c1C2=O [Example 6, 4,9-Dihydro-4,9-dioxo-5-ethylsulphonyl-lH-naphtho[2,3-dl-v-triazole] | – | 39% | 82% | –

Source: patent publication EP0097468A2, “Thio-naphthotriazoles, methods for producing them and their use in treating allergic diseases” (BEECHAM GROUP PLC, priority 1982, dated 1984)
